Reference: patent publication US9718782B2, “TrkA kinase inhibitors, compositions and methods thereof” (MERCK SHARP & DOHME CORP, priority 2013, dated 2017)
pIC50: −log10 of the molar value.

Molecular target: T1, TrkA receptor (Homo sapiens, UniProt P04629)
T1 construct: host or cells: U2OS (PathHunter, 'TrkA p75' cells)
Assay: DiscoverX PathHunter TrkA functional assay (NGF-stimulated U2OS cells)
Type: cell-based
Conditions: U2OS cells expressing TrkA-Prolink fusion and Shc1-EA; compound 1 hour, then EC80 NGF 3 hours; luminescence
Description: TrkA functional activity was measured using a DiscoverX PathHunter assay. In this assay, U2OS cells are express TrkA receptor as a fusion with the weakly complementing fragment of B-galactosidase, which DiscoverX calls “Prolink (PK)”; additionally, Shcl is fused with a larger fragment, which is called “Enzyme Acceptor (EA)”. Activation of the TrkA receptor, upon NGF addition, results in the kinase domain being phosphorylated, resulting in subsequent recruitment of Shcl-EA protein. That recruitment results in an active B-galactosidase enzyme that is detected by addition of a chemiluminescent substrate.
All reagents were purchased from DiscoverX, except for the receptor agonists (NGF, BDNF, NT3) which were purchased from Peprotech. Cells were expanded and frozen into cryovials (TrkA p75 @passage 13, 1.5×10^7 cells/vial; TrkC p75 @passage 11, 1.5×10^7 cells/vial in InVitrogen Recovery Cell Freezing media), and stored in the vapor phase of liquid nitrogen, and thawed immediately before use. Thawed cells were added to a 384-well plate (BD Falcon 384-well white/clear, TC surface 120 uL assay plates (353963), 20 uL of 0.375e6 cells/mL=>7500 cells/well), and allowed to incubate overnight. Compound (10 mM starting dose: 202.5 nL compound yielding 0.81% DMSO final in total assay volume and starting doses 81 uM) was added the following morning and allowed to incubate on cells for 1 hour. Then, 5 uL EC80 of agonist (NGF for TrkA; BDNF for TrkB; NT3 for TrkC) was added and allowed to incubate for 3 hours at room temperature. DiscoverX PathHunter detection reagent is added (12 uL to plate and components diluted in parts as per kit instructions) and the plate is further incubated for 1 hour in the dark. The plate is read via luminescence on the Perkin Elmer Envision.

T1 sequence (P04629 33-796): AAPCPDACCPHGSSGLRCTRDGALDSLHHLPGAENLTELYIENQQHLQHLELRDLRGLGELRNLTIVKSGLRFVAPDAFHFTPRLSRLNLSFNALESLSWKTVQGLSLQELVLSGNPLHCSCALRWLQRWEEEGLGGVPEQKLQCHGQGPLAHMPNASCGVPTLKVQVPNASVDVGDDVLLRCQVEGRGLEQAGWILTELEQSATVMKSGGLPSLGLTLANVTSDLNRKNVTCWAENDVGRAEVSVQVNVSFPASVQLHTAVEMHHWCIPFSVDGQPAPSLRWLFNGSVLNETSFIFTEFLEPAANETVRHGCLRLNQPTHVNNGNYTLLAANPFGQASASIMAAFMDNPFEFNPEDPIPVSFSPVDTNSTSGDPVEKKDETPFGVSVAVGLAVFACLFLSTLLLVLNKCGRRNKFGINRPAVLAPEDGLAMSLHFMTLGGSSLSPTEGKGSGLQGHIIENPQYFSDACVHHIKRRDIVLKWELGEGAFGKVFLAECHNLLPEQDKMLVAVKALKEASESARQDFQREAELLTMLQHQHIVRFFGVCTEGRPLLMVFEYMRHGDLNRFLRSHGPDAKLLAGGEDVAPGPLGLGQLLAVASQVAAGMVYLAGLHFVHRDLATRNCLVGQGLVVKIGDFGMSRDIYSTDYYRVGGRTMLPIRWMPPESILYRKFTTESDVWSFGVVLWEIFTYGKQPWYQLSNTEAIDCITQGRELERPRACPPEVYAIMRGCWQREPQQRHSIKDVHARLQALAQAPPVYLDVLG

Row | pIC50 | SMILES
1 | 7.16 | Cc1ccc(NC(=O)NC2c3ccccc3-c3ccccc32)c(-c2ccccc2)n1 [Compound 1, 1-(9H-fluoren-9-yl)-3-(6-methyl-2-phenylpyridin-3-yl)urea]
2 | 6.85 | Cc1nc(-c2ccccc2)c(NC(=O)NC2c3ccccc3-c3ccccc32)s1 [Compound 2, 1-(9H-fluoren-9-yl)-3-(2-methyl-4-phenyl-1,3-thiazol-5-yl)urea]
3 | 7.09 | Cc1ncc(NC(=O)NC2c3ccccc3-c3ccccc32)c(-c2ccccc2)n1 [Compound 4, 1-(9H-fluoren-9-yl)-3-(2-methyl-4-phenylpyrimidin-5-yl)urea]
4 | 6.64 | Cc1ccc(NC(=O)NC2c3ccccc3-c3ccccc32)c(-c2ccc(F)cc2)n1 [Compound 5, 1-(9H-fluoren-9-yl)-3-[2-(4-fluorophenyl)-6-methylpyridin-3-yl]urea]
5 | 7.36 | Cc1cc(NC(=O)NC2c3ccccc3-c3ccccc32)n(-c2ccccc2)n1 [Compound 7, 1-(9H-fluoren-9-yl)-3-(3-methyl-1-phenyl-1H-pyrazol-5-yl)urea]
6 | 5.60 | Cc1ccc(NC(=O)NC2c3ccccc3-c3ccccc32)cn1 [Compound 13, 1-(9H-fluoren-9-yl)-3-(6-methylpyridin-3-yl)urea]
7 | 6.51 | Cn1cnc(-c2ccccc2)c1NC(=O)NC1c2ccccc2-c2ccccc21 [Compound 22, 1-(9H-fluoren-9-yl)-3-(1-methyl-4-phenyl-1H-imidazol-5-yl)urea]
8 | 6.28 | CNc1ncccc1NC(=O)NC1c2ccccc2-c2ccccc21 [Compound 26, 1-(9H-fluoren-9-yl)-3-[2-(methylamino)pyridin-3-yl]urea]
9 | 5.49 | Cc1ccc(NC(=O)NC2c3ccccc3-c3ccccc32)c(F)n1 [Compound 27, 1-(9H-fluoren-9-yl)-3-(2-fluoro-6-methylpyridin-3-yl)urea]
10 | 6.82 | Cc1ncc(NC(=O)NC2c3ccccc3-c3ccccc32)c(-c2ccc(F)cc2)n1 [Compound 28, 1-(9H-fluoren-9-yl)-3-[4-(4-fluorophenyl)-2-methylpyrimidin-5-yl]urea]
11 | 6.32 | Cc1cc(-c2ccc(F)cc2)c(NC(=O)NC2c3ccccc3-c3ccccc32)cn1 [Compound 29, 1-(9H-fluoren-9-yl)-3-[4-(4-fluorophenyl)-6-methylpyridin-3-yl]urea]
12 | 5.77 | Cc1nnnn1-c1cccc(NC(=O)NC2c3ccccc3-c3ccccc32)c1 [Compound 33, 1-(9H-fluoren-9-yl)-3-[3-(5-methyl-1H-tetrazol-1-yl)phenyl]urea]
13 | 5.64 | Cc1nnc(-c2cccc(NC(=O)NC3c4ccccc4-c4ccccc43)c2)[nH]1 [Compound 37, 1-(9H-fluoren-9-yl)-3-[3-(5-methyl-4H-1,2,4-triazol-3-yl)phenyl]urea]
14 | 5.52 | Cc1nccn1-c1cccc(NC(=O)NC2c3ccccc3-c3ccccc32)c1 [Compound 38, 1-(9H-fluoren-9-yl)-3-[3-(2-methyl-1H-imidazol-1-yl)phenyl]urea]
15 | 5.52 | Cc1cc(NC(=O)NC2c3ccccc3-c3ccccc32)n(-c2ccccn2)n1 [Compound 39, 1-(9H-fluoren-9-yl)-3-(3-methyl-1-pyridin-2-yl-1H-pyrazol-5-yl)urea]
16 | 7.08 | Cc1cc(NC(=O)NC2c3ccccc3-c3ccccc32)n(-c2ccc(F)cc2)n1 [Compound 41, 1-(9H-fluoren-9-yl)-3-[1-(4-fluorophenyl)-3-methyl-1H-pyrazol-5-yl]urea]
17 | 6.96 | Cn1cnnc1-c1cccc(NC(=O)NC2c3ccccc3-c3ccccc32)c1 [Compound 42, 1-(9H-fluoren-9-yl)-3-[3-(4-methyl-4H-1,2,4-triazol-3-yl)phenyl]urea]

The remaining lines, values behind:

Row | SMILES | pIC50
18 | Cc1ncc(NC(=O)NC2c3ccccc3Oc3ccccc32)c(-c2ccccc2)n1 [Compound 3, 1-(2-methyl-4-phenylpyrimidin-5-yl)-3-(9H-xanthen-9-yl)urea] | 7.21
19 | O=C(Nc1c(-c2ccccc2)nc2sccn12)NC1c2ccccc2-c2ccccc21 [Compound 6, 1-(9H-fluoren-9-yl)-3-(6-phenylimidazo [2,1-b][1,3]thiazol-5-yl)urea] | 7.46
20 | Cc1onc(-c2ccccc2)c1NC(=O)NC1c2ccccc2-c2ccccc21 [Compound 8, 1-(9H-fluoren-9-yl)-3-(5-methyl-3-phenylisoxazol-4-yl)urea] | 6.72
21 | Cn1ncc(-c2ccccc2)c1NC(=O)NC1c2ccccc2-c2ccccc21 [Compound 9, 1-(9H-fluoren-9-yl)-3-(1-methyl-4-phenyl-1H-pyrazol-5-yl)urea] | 6.28
22 | Cc1nn(C)c(NC(=O)NC2c3ccccc3-c3ccccc32)c1-c1ccccc1 [Compound 10, 1-(1,3-dimethyl-4-phenyl-1H-pyrazol-5-yl)-3-(9H-fluoren-9-yl)urea] | 6.68
23 | O=C(Nc1cccnc1-c1ccccc1)NC1c2ccccc2-c2ccccc21 [Compound 11, 1-(9H-fluoren-9-yl)-3-(2-phenylpyridin-3-yl)urea] | 7.57
24 | O=C(Nc1cnccc1-c1ccccc1)NC1c2ccccc2-c2ccccc21 [Compound 12, 1-(9H-fluoren-9-yl)-3-(4-phenylpyridin-3-yl)urea] | 6.55
25 | O=C(Nc1ccnn1-c1ccccc1)NC1c2ccccc2-c2ccccc21 [Compound 14, 1-(9H-fluoren-9-yl)-3-(1-phenyl-1H-pyrazol-5-yl)urea] | 6.92
26 | O=C(Nc1cc(-c2ccccc2)nn1-c1ccccc1)NC1c2ccccc2-c2ccccc21 [Compound 15, 1-(1,3-diphenyl-1H-pyrazol-5-yl)-3-(9H-fluoren-9-yl)urea] | 5.52
27 | CC(C)(C)c1cc(NC(=O)NC2c3ccccc3-c3ccccc32)n(-c2ccccc2)n1 [Compound 16, 1-(3-tert-butyl-1-phenyl-1H-pyrazol-5-yl)-3-(9H-fluoren-9-yl)urea] | 7.16
28 | CC(C)Cc1cc(NC(=O)NC2c3ccccc3-c3ccccc32)n(-c2ccccc2)n1 [Compound 17, 1-(9H-fluoren-9-yl)-3-[3-(2-methylpropyl)-1-phenyl-1H-pyrazol-5-yl]urea] | 6.70
29 | Cc1ccccc1-n1nc(C(C)(C)C)cc1NC(=O)NC1c2ccccc2-c2ccccc21 [Compound 18, 1-[3-tert-butyl-1-(2-methylphenyl)-1H-pyrazol-5-yl]-3-(9H-fluoren-9-yl)urea] | 6.07
30 | O=C(Nc1cc(C2CC2)nn1-c1ccccc1)NC1c2ccccc2-c2ccccc21 [Compound 19, 1-(3-cyclopropyl-1-phenyl-1H-pyrazol-5-yl)-3-(9H-fluoren-9-yl)urea] | 7.16
31 | CC(C)(C)c1cc(NC(=O)NC2c3ccccc3-c3ccccc32)n(-c2ccc(F)cc2)n1 [Compound 20, 1-[3-tert-butyl-1-(4-fluorophenyl)-1H-pyrazol-5-yl]-3-(9H-fluoren-9-yl)urea] | 6.72
32 | O=C(Nc1c(-c2ccccc2)nc2ccccn12)NC1c2ccccc2-c2ccccc21 [Compound 21, 1-(9H-fluoren-9-yl)-3-(2-phenylimidazo [1,2-a]pyridin-3-yl)urea] | 7.55
33 | Cc1nn(-c2ccc(F)cc2)c(NC(=O)NC2c3ccccc3-c3ccccc32)c1C#N [Compound 23, 1-[4-cyano-1-(4-fluorophenyl)-3-methyl-1H-pyrazol-5-yl]-3-(9H-fluoren-9-yl)urea] | 6.48
34 | COc1ccc(-c2cc(NC(=O)NC3c4ccccc4-c4ccccc43)n(-c3ccccc3)n2)cc1 [Compound 24, 1-(9H-fluoren-9-yl)-3-[3-(4-methoxyphenyl)-1-phenyl-1H-pyrazol-5-yl]urea] | 6.26
35 | O=C(Nc1c2cnc3ccccc3c2nn1-c1ccccc1)NC1c2ccccc2-c2ccccc21 [Compound 25, 1-(9H-fluoren-9-yl)-3-(2-phenyl-2H-pyrazolo[4,3-c]quinolin-3-yl)urea] | 5.85
36 | O=C(Nc1cncnc1-c1ccccc1)NC1c2ccccc2-c2ccccc21 [Compound 30, 1-(9H-fluoren-9-yl)-3-(4-phenylpyrimidin-5-yl)urea] | 6.77
37 | O=C(Nc1ccccc1-c1ccccc1)NC1c2ccccc2-c2ccccc21 [Compound 31, 1-biphenyl-2-yl-3-(9H-fluoren-9-yl)urea] | 6.02
38 | Cn1nnc(-c2cccc(NC(=O)NC3c4ccccc4-c4ccccc43)c2)n1 [Compound 32, 1-(9H-fluoren-9-yl)-3-[3-(2-methyl-2H-tetrazol-5-yl)phenyl]urea] | 5.92
39 | O=C(Nc1cccc(-n2cnnc2)c1)NC1c2ccccc2-c2ccccc21 [Compound 34, 1-(9H-fluoren-9-yl)-3-[3-(4H-1,2,4-triazol-4-yl)phenyl]urea] | 5.96
40 | O=C(Nc1ccccc1N1CCOCC1)NC1c2ccccc2-c2ccccc21 [Compound 35, 1-(9H-fluoren-9-yl)-3-(2-morpholin-4-ylphenyl)urea] | 5.40
41 | CN1CCN(Cc2ccccc2NC(=O)NC2c3ccccc3-c3ccccc32)CC1 [Compound 36, 1-(9H-fluoren-9-yl)-3-{2-[(4-methylpiperazin-1-yl)methyl]phenyl}urea] | 5.52
42 | O=C(Nc1cccnc1C1CCCCC1)NC1c2ccccc2-c2ccccc21 [Compound 40, 1-(2-cyclohexylpyridin-3-yl)-3-(9H-fluoren-9-yl)urea] | 6.70
